Test results from patent publication US10214609B2, “Polyglyoxylates, manufacture and use thereof” (THE UNIVERSITY OF WESTERN ONTARIO, priority 2014, dated 2019).

Legend:
[1] = NMR degradation study of the micelles; type: physicochemical; settings: over 24 h at 37° C., pH 7.4 buffered D2O
Procedure: 16 mg of block copolymer 21 b was fully dissolved in 0.8 mL of DMSO-d6. 0.2 mL of the resulting solution was rapidly injected into 1.0 mL of 100 mM, pH 7.4 phosphate or 100 mM, pH 5.0 citrate buffered D2O. After stirring for 0.5 h, the micelle suspension was transferred into two NMR tubes. One tube was then irradiated for 10 min in with UV light (wavelength: 300-350 nm, 23 mW cm^−2), while the other one was kept in the dark. A ^1H NMR spectrum was obtained immediately following irradiation (10 min time point in the graph), then the samples were incubated at 37° C. and spectra were obtained at regular intervals over 24 h. Complete depolymerization was confirmed for the irradiated sample as the sum of the integration of the methyl peaks corresponding to EtGH and ethanol (1.0-1.2 ppm) plateaud at a very similar (1198) value to that of the methyl peak at 1.17-1.45 ppm in the block copolymer 21b taken in CDCl3 (integration 1152) when setting the PEG peak integral to 364. The % polymer remaining was calculated as 100−(sum of integration from 1.0-1.2 ppm/1198))*100.

[2] = Nile red encapsulation and triggered release from micelles; settings: dissolved in ethanol, same irradiation periods
[3] = Thermogravimetric analysis (TGA) of polymers; type: physicochemical
Source text: Ethyl glyoxylate in toluene solution (50% w/w), phenyl isocyanate, dibutyltin dilaurate (DBTL), benzyl chloroformate, 4-dimethylaminopyridine (DMAP), 4-bromomethyl-3-nitrobenzoic acid, methanesulfonyl chloride and benzyl bromide were obtained from Alfa Aesar (Canada). Fumaric acid and maleic acid were purchased from Acros Organics (USA). 6-Nitroveratryl chloroformate (NVOC-Cl) was obtained from Chem-Impex International, Inc. (USA). Propargyl amine was purchased from AK Scientific, Inc. (USA). 4-(Hydroxymethyl)phenylboronic acid pinacol ester and hydrogen peroxide solution (50 wt %) in water, hydrazine hydrate, dimethyl sulfide, sodium azide (NaN3), tin (II)chloride dehydrate, phosgene solution (15 wt. % in toluene), nile red and poly(ethylene glycol) methyl ether (MW=5000 g/mol, 2000 g/mol and 750 g/mol) were purchased from Sigma-Aldrich (USA). 1-Ethyl-3-(3-dimethylaminopropyl) carbodiimide hydrochloride (EDC.HCl) was purchased from Creo Salus (USA). Thionyl chloride (Alfa Aesar) was distilled under argon prior to use. Triethylamine (Et3N), pyridine, and dichloromethane were distilled from calcium hydride before use. Anhydrous tetrahydrofuran (THF) and N,N-dimethylformamide (DMF) were obtained from a solvent purification system using aluminum oxide columns. All the other chemicals were of reagent grade and used without further purification. ^1H NMR spectra were obtained in CDCl3 at 400 MHz or 600 MHz on Varian Inova instruments. NMR chemical shifts (δ) are reported in ppm and are calibrated against residual solvent signals of CDCl3 (δ 7.27), acetonitrile-d3 (δ 1.94), DMSO-d6 (δ 2.50) or deuterium oxide (δ 4.75). Fourier transform infrared spectra (FT-IR) were obtained using a Bruker tensor 27 instrument with films drop cast from CH2Cl2 on KBr plates. High-resolution mass spectrometry (HRMS) was performed using a Finnigan MAT 8400 electron impact (EI) mass spectrometer. The SEC instrument was equipped with a Viscotek GPC Max VE2001 solvent module. Samples were analyzed using the Viscotek VE3580 RI detector operating at 30° C. The separation technique employed two Agilent Polypore (300×7.5 mm) columns connected in series and to a Polypore guard column (50×7.5 mm). Samples were dissolved in THF (glass distilled grade) in approximately 5 mg/mL concentrations and filtered through 0.22 μm syringe filters. Samples were injected using a 100 μL loop. The THF eluent was filtered and eluted at 1 ml/min for a total of 30 minutes. A calibration curve was obtained from Polystyrene samples with molecular weight ranges of 1,540-1,126,000/mol Differential scanning calorimetry (DSC) and thermogravimetric analysis (TGA) were performed on a Mettler Toledo DSC 822e. For TGA the heating rate was 10° C./min between 50-400° C. under nitrogen. For DSC, the heating/cooling rate was 10° C./min from −100 to +17° C. Glass transition temperatures were obtained from the second heating cycle. Ultrapure water was obtained from a Barnstead EASYpure II system. Dialyses were performed using Spectra/Por regenerated cellulose membranes with 3500 g/mol MWCO.

| Compound | Change of fluorescence intensity on irradiation (photostability) [2] | To (onset degradation temperature) [3] [°C] | Tp (peak degradation temperature) [3] [°C] | Hydrolysis to glyoxylic acid and ethanol [1] [%] |
| --- | --- | --- | --- | --- |
| CCOC(=O)C=O.O [EtGH, ethyl glyoxylate hydrate] |  |  |  | ~45 |
| PEtG-co-poly(methyl glyoxylate) [Polymer 14] |  | 181 | 203 |  |
| poly(benzyl glyoxylate) [Polymer 13] |  | 195 | 229 |  |

Further lines, with some results ahead:

| Change of fluorescence intensity on irradiation (photostability) [2] | To (onset degradation temperature) [3] [°C] | Tp (peak degradation temperature) [3] [°C] | Compound | Hydrolysis to glyoxylic acid and ethanol [1] [%] |
| --- | --- | --- | --- | --- |
| no detectable decrease in intensity |  |  | CCN(CC)c1ccc2nc3c4ccccc4c(=O)cc-3oc2c1 [nile red] |  |
|  | 208 | 236 | PEtG-co-poly(n-butyl glyoxylate) [Polymer 15] |  |
